Earlier results as cited in patent US8895729B2, “Process for making thienopyrimidine compounds” (Genentech, Inc., priority 2012, dated 2014).

Columns and labels:
[1] = not given; remark: listed apart in the source
[2] = test system: receptor screening assay (n=68); conditions: GDC-0980=10 microM
[3] = single oral dose
[4] = test system: PC3 PTEN-prostate xenograft; conditions: mouse PC3 PTEN- prostate xenograft; 25 to 150 mg/kg qd po
[5] = test system: MCF7.1 E545K breast xenograft; conditions: mouse MCF7.1 E545K breast xenograft; 25 to 150 mg/kg qd po
[6] = test system: MDA-MB-361.1 breast cancer xenograft
[7] = test system: xenograft cancer models; breast, ovarian, lung, and prostate

Cc1c(CN2CCN(C(=O)[C@H](C)O)CC2)sc2c(N3CCOCC3)nc(-c3cnc(N)nc3)nc12 [GDC-0980, (S)-1-(4-((2-(2-aminopyrimidin-5-yl)-7-methyl-4-morpholinothieno[3,2-d]pyrimidin-6-yl)methyl)piperazin-1-yl)-2-hydroxypropan-1-one]
IC50 (MCF7-neo/HER2 cell line): 0.32 µM | stability in human microsomes: stable | stability in human hepatocytes [1]: stable | responses in a receptor screening assay [2]: did not elicit significant responses | AUC dose dependence [3]: dose-proportional increases | Cmax dose dependence [3]: dose-proportional increases | efficacy in xenograft model [4]: efficacious | efficacy in xenograft model [5]: efficacious | minimum dose producing significant growth inhibition [6]: 1.0 mg/kg QD | activity in preclinical xenograft cancer models [7]: broad activity
